# Data: publication PMC12040169 (PLOS Biology, 2025)
# Key:
# in vitro [1] = test: in vitro; set-up: Viability of infected HeLa host cells, resazurin conversion, bulk resorufin fluorescence relative to DMSO; settings: human, hela cells; bulk resorufin, mean of 2
# [2] = tested on: T1, CTL2-GFP (C. trachomatis L2/434/Bu, GFP-expressing); test: microbe, parasite or virus in culture; set-up: Intracellular C. trachomatis growth in HeLa cells, bulk GFP fluorescence relative to DMSO; settings: Chlamydia trachomatis, HeLa, 28.5 h; bulk GFP, mean of 2; read-out: % of control remaining
# T1 construct: L2/434/Bu, GFP-expressing
# Description: MICs were calculated as described above.
# [3] = tested on: T2, C. trachomatis L2/434/Bu expressing GFP (CTL2-GFP); test: microbe, parasite or virus in culture; set-up: C. trachomatis total inclusion area by high-content imaging, normalised to DMSO; settings: Chlamydia trachomatis, HeLa, 28.5 h; total inclusion area; read-out: % of control remaining
# T2 construct: L2/434/Bu GFP intracellular growth in HeLa cells
# Description: We screened a library of 36,785 small molecules displaying drug-like properties and covering a wide chemical space (Fig 1A and S2A Data). In this process, we also complemented the assay described above with an imaging-based readout (Fig 1B). After measurements of bulk GFP and resorufin fluorescence, cells were fixed, stained with the DNA dye Hoechst, and imaged at a high-content imaging platform to detect chlamydial inclusions (GFP) and host cell nuclei (Hoechst). The total area and number of inclusions in individual wells and the number of nuclei then served as additional proxies for chlamydial growth and host cell viability. […] MICs were calculated as described above.
# in vitro [4] = settings: human, hela cells, % viability
SMILES,"viability at 28.5 h, 1 µM (in vitro [1]) [%]","viability at 28.5 h, 5 µM (in vitro [1]) [%]","viability at 28.5 h, 10 µM (in vitro [1]) [%]",activity at 1 µM [2] [%],activity at 5 µM [2] [%],activity at 10 µM [2] [%],activity at 1 µM [3] [%],activity at 5 µM [3] [%],activity at 10 µM [3] [%],"viability at 28.5 h, 10 µM (in vitro [4]) [%]"
c1ccc(-c2nc3cc4ccccc4cc3[nH]2)nc1 [CBK000130],99.1,95.7,90.5,133,40.2,18.3,98.2,31.5,14.1,
N#CC(CCCN1CCN(c2ccccc2)CC1)(c1ccccc1)c1ccccc1 [CBK002243C],99.6,105,118,106,74,41.5,42.5,23.5,17.3,
NC(Cc1ccccc1)CN(CC1(c2ccc(Cl)cc2)CC1)C(=O)Nc1ccc2c(c1)OCO2 (stereo not shown) [CBK002342C],95.3,95.4,93.5,211,102,98.8,109,43.5,54,
CC(C)(CN)CN(Cc1c[nH]c(-c2ccccc2)n1)C(=O)Nc1ccc(C(C)(C)C)cc1 [CBK002462C],91.6,89.2,72.5,139,101,29.5,106,55.9,29,
CN(C)[C@H]1CCC[C@@H]1C(=O)Nc1ccc(Cl)c(Cl)c1 [CBK003406],105,109,107,90.9,67.2,13,112,76.4,20.8,
C[C@@H]1CN(c2ccc(C(F)(F)F)c(OCc3ccccc3)n2)CCN1 [CBK003987A],102,98.9,113,110,90.5,35,70.4,53.4,17.6,
CCOc1ccsc1C(=O)Nc1cc(C)ccn1 [CBK004029],92.3,92.3,71.7,122,61.7,32.4,116,64.9,19.7,
Cc1cccc(N(C)S(=O)(=O)c2ccc(N3CCCNCC3)c3ccccc23)c1C [CBK004430C],89.7,84.9,88.8,142,95.8,45.1,121,56.7,8.36,
COc1cccc(CNC(C(=O)O)c2ccc3c(c2)OCO3)c1 (stereo not shown) [CBK015420D],92.7,92.5,87.4,107,30.9,12.5,103,49.9,20.3,
CC(Oc1cccc2ccccc12)C(=S)N(C)c1ccccc1 (stereo not shown) [CBK016158],113,117,107,98.8,81.4,67.6,105,98.3,84.8,
Cc1cc(Br)ccc1S(=O)(=O)N(C)c1ccc(N2CCNCC2)c2ccccc12 [CBK016170C],91.8,92.1,112,106,75.3,35.2,63.9,26.9,12.9,
CCC1C(c2ccc(C)cc2)=CCC(C(=O)NCCCN(C)C)C1C (stereo not shown) [CBK016514],104,88.9,100,112,33.9,9.47,109,44.4,8.47,
CCCN(CCC)CCc1cccc2c1CCN2C(=O)c1cc2ccccc2s1 [CBK017871C],96.8,96.9,97.3,42.3,18.2,9.45,58,26.8,2.13,
COc1ccccc1N/C(=N\OCc1ccc(Cl)cc1Cl)c1nonc1N [CBK018391],90.7,92.4,94.7,137,122,103,89.5,84,56.1,
CCc1nnc(NS(=O)(=O)c2ccc(NC(=S)NC(=O)c3ccco3)cc2)s1 [CBK018917],100,94.7,115,117,56.1,18.8,79.7,57,24.2,
COc1ccc(CCN(CCc2ccccc2)CC(O)COc2cccc3c2CCCC3)cc1 (stereo not shown) [CBK024506T],97.4,95.2,101,108,104,51,99,114,55.3,
Cc1nn(C)c(N2CCN(C(=O)OC(C)(C)C)CC2)c1N [CBK034182],90.6,94.8,88.5,120,91.7,38.1,122,92,53.1,
CCCCCC(=O)Nc1ccc(S(=O)(=O)Nc2nnc(CC)s2)cc1 [CBK045478],94.8,93.6,91.2,137,47.1,29.6,122,53,48.9,

SMILES,"viability at 28.5 h, 1 µM (in vitro [1]) [%]","viability at 28.5 h, 5 µM (in vitro [1]) [%]","viability at 28.5 h, 10 µM (in vitro [1]) [%]",activity at 1 µM [2] [%],activity at 5 µM [2] [%],activity at 10 µM [2] [%],activity at 1 µM [3] [%],activity at 5 µM [3] [%],activity at 10 µM [3] [%],"viability at 28.5 h, 10 µM (in vitro [4]) [%]"
CC(=O)Nc1ccc(S(=O)(=O)Nc2ccc(C(=O)Nc3ccc(F)cc3)cc2)cc1 [CBK050401],93.4,87.7,91.8,101,31.9,14.2,114,48.5,30,
CN1CCN(c2ccc3ccn(S(=O)(=O)c4ccc([N+](=O)[O-])cc4)c3n2)CC1 [CBK070757C],89.6,87.7,86,140,89.2,46.7,106,64,24.6,
Cc1ccc2cc(CN3CCCC(N)CC3)c(N3CCOCC3)nc2c1 (stereo not shown) [CBK307693],,,,,,,,,,83.5
CCn1ccc(C(=O)NC(c2cncc(OC)c2)[C@H]2C[C@@H](O)C2)cc1=O (stereo partly shown) [CBK307696],,,,,,,,,,110
COCCn1c(CO)nnc1[C@H]1C[C@@H](NC(=O)c2cc(O)ccc2F)C1 [CBK307698],,,,,,,,,,90.4
Cc1ccc(F)c(CN2CCN(CCO)[C@@H]3CS(=O)(=O)C[C@@H]32)c1 [CBK307699],,,,,,,,,,93.6
CC(C)N(C(=O)c1ccccc1-c1cnn2cccnc12)C(C)C [CBK307701],,,,,,,,,,85.4
CNc1ncc(CN(C)C(=O)Cn2nc(C)c3ccccc3c2=O)cn1 [CBK307704],,,,,,,,,,85.5
COCCN(CCOC)C(=O)Nc1ccc(F)c(NC(C)=O)c1 [CBK307705],,,,,,,,,,98.2
CCOCc1nc2c(c(NCCn3cccn3)n1)CCN(C(C)=O)CC2 [CBK307707],,,,,,,,,,98.3
CCN(Cc1cccc(C(=O)O)c1)Cc1noc(C2CCC2)n1 [CBK307708],,,,,,,,,,102
Cc1ncsc1CCN(C)C(C)C(=O)Nc1nccs1 (stereo not shown) [CBK307709],,,,,,,,,,109
CCC(O)c1nc(CCSC)nn1-c1cc(=O)n(C)c2ccccc12 (stereo not shown) [CBK307711],,,,,,,,,,90.5
CC(C)n1cnnc1CN1CCN(c2ccc(C#N)cc2)CC1 [CBK307714],,,,,,,,,,106
CCS(=O)(=O)CCNC(=O)c1cnc(N2CCCCC2)nc1C [CBK307715],,,,,,,,,,82.9
Cc1nn(C)c(Cl)c1CN1CCCC(CCC(=O)N2CCN(C)CC2)C1 (stereo not shown) [CBK307716],,,,,,,,,,92.5
Cc1ccc(OCc2occc2C(=O)N2CCc3[nH]cnc3C2)cc1 [CBK307717],,,,,,,,,,85.6
CC(=O)Nc1ccc(CNC(=O)CN2CCCC(c3ncc[nH]3)C2)cc1 (stereo not shown) [CBK307718],,,,,,,,,,96.5
